Biological target: C5aR (Homo sapiens (Human), UniProt P21730)
Experiment: Chemotaxis assay using U937 cells (C5aR mediated migration)
Assay type: cell-based
Settings: read-out: Mig IC50
Method in brief: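 U937 monocytic cells, pretreated overnight with 0.5 mM cyclic AMP, placed at 100,000 cells in the upper well above 5 μm polycarbonate filters. Lower well held 0.03 nM C5a plus compound in HBSS/1% FBS; after 1.5 h at 37° C migrated cells counted directly or by CyQuant, giving IC50.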

Sequence of C5aR (P21730 whole entry): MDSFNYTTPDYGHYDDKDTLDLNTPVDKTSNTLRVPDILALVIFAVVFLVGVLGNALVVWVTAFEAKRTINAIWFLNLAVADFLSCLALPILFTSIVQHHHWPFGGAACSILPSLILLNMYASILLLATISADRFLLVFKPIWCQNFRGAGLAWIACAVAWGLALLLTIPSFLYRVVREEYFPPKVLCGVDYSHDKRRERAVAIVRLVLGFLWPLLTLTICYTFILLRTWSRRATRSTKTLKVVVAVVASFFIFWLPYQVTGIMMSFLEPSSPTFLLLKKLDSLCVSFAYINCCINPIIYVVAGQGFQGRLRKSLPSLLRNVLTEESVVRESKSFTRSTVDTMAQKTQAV

| IC50 [nM] | SMILES |
| --- | --- |
| 5 to 50 | CCc1cccc(CC)c1-n1nc2c(c1-c1ccc(NC(N)=O)cc1)CN(c1ncc(C(F)(F)F)cc1F)CC2 [Example 1.301] |
| 5 to 50 | Cc1cccc(OCC(C)C)c1-n1nc2c(c1-c1ccc(NC(N)=O)cc1)CN(C(C)c1cccc(C(F)(F)F)c1)CC2 (centres unmarked) [Example 1.314] |
| 5 to 50 | Cc1cccc(OCC(C)C)c1-n1nc2c(c1-c1ccc(NC(N)=O)cc1)CN(c1cnc(C(F)(F)F)cn1)CC2 [Example 1.341] |
| ≤ 5 | Cc1cc(C(C)C)cnc1N1CCc2nn(-c3c(C)cccc3OCC(C)C)c(-c3cc(F)c(NC(N)=O)cc3F)c2C1 [Example 1.185] |
| ≤ 5 | Cc1cccc(OCC(C)C)c1-n1nc2c(c1-c1ccc(NC(N)=O)c(F)c1Cl)CN(c1ncc(C(F)(F)F)cc1F)CC2 [Example 1.222] |
| > 500 | Cc1cccc(C)c1-n1nc2c(c1-c1ccc(C(N)=O)c(F)c1)CN(c1ncc(Cl)cc1Cl)CC2 [Example 1.110] |
| ≤ 5 | CCc1cccc(CC)c1-n1nc2c(c1-c1cc(F)c(NC(N)=O)cc1F)CN(Cc1ccc(C(F)(F)F)cc1C(F)(F)F)C(C)(C)C2 [Example 1.059] |
| ≤ 5 | Cc1cccc(C)c1-n1nc2c(c1-c1cc(F)c(NC(N)=O)cc1F)CN(c1cc(C(F)(F)F)ccc1F)CC2 [Example 1.094] |
| ≤ 5 | COCC(c1ccccc1)N1CCc2nn(-c3c(C)cccc3OCC(C)C)c(-c3cc(F)c(NC(N)=O)cc3F)c2C1 (centres unmarked) [Example 1.131] |
| ≤ 5 | Cc1cccc(OCC(C)C)c1-n1nc2c(c1-c1ccc(NC(N)=O)cc1)CN(Cc1ccc(C(F)(F)F)cc1Cl)CC2 [Example 1.315] |
| ≤ 5 | CCc1cccc(CC)c1-n1nc2c(c1-c1cc(F)c(NC(N)=O)cc1OC)CN(c1ncc(Cl)cc1Cl)CC2 [Example 1.147] |
| ≤ 5 | Cc1cccc(OCC(C)C)c1-n1nc2c(c1-c1ccc(NC(N)=O)c(F)c1)CN(CC(C)C(F)(F)F)CC2 (centres unmarked) [Example 1.262] |
| 5 to 50 | Cc1cccc(C)c1-n1nc2c(c1-c1cc(F)c(NC(N)=O)cc1F)CN(C(c1ccccc1)C(C)(C)O)CC2 (centres unmarked) [Example 1.085] |
| 5 to 50 | Cc1cccc(OCC(C)C)c1-n1nc2c(c1-c1ccc(NC(N)=O)cc1)CN(CC1CCCC1)CC2 [Example 1.404] |
| 5 to 50 | CCc1cccc(CC)c1-n1nc2c(c1-c1ccc(NC(N)=O)c(F)c1)CN(C(CC)CC)CC2 [Example 1.219] |
| 5 to 50 | Cc1cccc(OCC(C)C)c1-n1nc2c(c1-c1ccc(NC(N)=O)cc1)CN(c1cc(C(F)(F)F)ccc1F)CC2 [Example 1.368] |
| ≤ 5 | CCc1cccc(CC)c1-n1nc2c(c1-c1cc(F)c(NC(N)=O)cc1F)CN(C(C)(C)c1cccc(C(F)(F)F)c1)CC2 [Example 1.163] |
| 5 to 50 | CCC(C)N1CCc2nn(-c3c(C)cccc3OCC(C)C)c(-c3ccc(NC(N)=O)c(F)c3)c2C1 (centres unmarked) [Example 1.259] |
| ≤ 5 | CCc1cccc(CC)c1-n1nc2c(c1-c1ccc(NC(N)=O)c(F)c1)CN(C(C)C1CCCCC1)CC2 (centres unmarked) [Example 1.223] |
| ≤ 5 | COc1cc(NC(N)=O)c(F)cc1-c1c2c(nn1-c1c(C)cccc1C)CCN(c1ccc(Cl)cc1Cl)C2 [Example 1.114] |
| 5 to 50 | Cc1cccc(OCC(C)C)c1-n1nc2c(c1-c1ccc(NC(N)=O)cc1)CN(Cc1ccccc1)CC2 [Example 1.382] |
| ≤ 5 | CCc1cccc(CC)c1-n1nc2c(c1-c1cc(F)c(NC(N)=O)cc1F)CN(C(C)(C)c1ccc(OC)cc1)CC2 [Example 1.157] |
| > 500 | Cc1cccc(OCC(C)C)c1-n1nc2c(c1-c1ccc(NC(N)=O)c(C#N)c1)CN(c1ncc(C(F)(F)F)cc1F)CC2 [Example 1.226] |
| ≤ 5 | Cc1cccc(OCC(C)C)c1-n1nc2c(c1-c1ccc(NC(N)=O)cc1)CN(Cc1cc(C(F)(F)F)ccc1C(F)(F)F)CC2 [Example 1.335] |
| ≤ 5 | Cc1cccc(OCC(C)C)c1-n1nc2c(c1-c1cc(F)c(NC(N)=O)cc1F)CN(C(c1ccccc1)C(F)(F)F)CC2 (centres unmarked) [Example 1.196] |
| 5 to 50 | CCc1cccc(CC)c1-n1nc2c(c1-c1cc(F)c(NC(N)=O)cc1F)CN(C(=O)C1CCOCC1)C(C)(C)C2 [Example 1.029] |

Reference: patent publication US11478460B2, “Diaryl substituted 6,5-fused ring compounds as C5aR inhibitors” (CHEMOCENTRYX, INC., priority 2017, dated 2022)
